According to US20180064659A1, “AGENTS USEFUL FOR TREATING OBESITY, DIABETES AND RELATED DISORDERS” (The Regents of the University of California, priority 2015, published 2018):

How the values were obtained:
Shc-PTB domain = target: T1, Shc-PTB domain (Homo sapiens, UniProt P29353); experiment: Octet RED 384 binding to p52Shc protein (p52Shc lacking PTB domain as reference); conditions: for EC50: 10 pM to 100 uM, Octet RED 384
T1 sequence (P29353 1-473 isoform P29353-2): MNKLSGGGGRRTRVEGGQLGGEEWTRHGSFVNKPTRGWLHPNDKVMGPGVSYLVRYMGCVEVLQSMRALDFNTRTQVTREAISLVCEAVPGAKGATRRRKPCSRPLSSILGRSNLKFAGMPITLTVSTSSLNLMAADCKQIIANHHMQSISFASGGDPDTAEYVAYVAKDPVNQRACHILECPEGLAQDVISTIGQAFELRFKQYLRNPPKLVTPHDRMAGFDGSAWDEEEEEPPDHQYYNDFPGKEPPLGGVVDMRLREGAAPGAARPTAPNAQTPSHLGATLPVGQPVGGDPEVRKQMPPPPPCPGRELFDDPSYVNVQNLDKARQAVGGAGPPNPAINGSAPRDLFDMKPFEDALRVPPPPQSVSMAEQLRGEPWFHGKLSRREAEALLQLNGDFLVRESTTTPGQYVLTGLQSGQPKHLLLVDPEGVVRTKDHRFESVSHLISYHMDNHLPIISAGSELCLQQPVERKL
Protocol: (§1) Sensogramms were obtained, and response [nm] for each concentration was plotted against log concentration of idebenone. Sigmoidal, variable slope fitting analysis was performed using GraphPad Prism Software (GraphPad Software, Inc., La Jolla, Calif.). […] Cells were stimulated with 0.2 nM insulin for 10 minutes, and Western analyzed for induction of Akt and ERK. Insulin dependent activation of Akt is presented as fold change over vehicle control, and plotted against log concentration of idebenone; tubulin signal was used for normalization between biological samples. Sigmoidal dose-response (variable slope) fitting analysis was performed, EC50, hill slope, and top response were identified, as described above, and are indicated on the graph. p-value was calculated by testing R^2 for significance for N=65. […] Idebenone at indicated dose was given to animals 30 minutes before dark phase for five days. At the day of Insulin Tolerance Test (ITT) additional dose of idebenone was given to animals two hours prior to insulin injection. For ITT, the food was deprived at 7 am (the beginning of light phase), basal glucose was measured at 11 am, and insulin was administrated at 0.8 U/kg dose; blood glucose was recorded and expressed as % of baseline, and plotted against time. […] Software (CambridgeSoft Corporation, Waltham, Mass.), and virtually docked to Shc-PTB using iGEMDOCK software (BioXGEM Lab, National Chiao-Tung University Hsinchu, Taiwan, R.O.C), and, MOL file was generated. Three dimensional structure of PTB domain of Shc was obtained from Protein Data Bank (http://www.rcsb.org/).
FIGS. 9A-E illustrate that SrcI-1 binds into PTB domain of Shc protein. […] Sensograms were obtained and shown. […] Sigmoidal, variable slope fitting analysis was performed; EC50, hill slope, and top response were identified, and indicated. p-value was calculated by testing R^2 for significance for N=24; SrcI-1 was binding to Shc-PTB domain with EC50 of 3 μM.
FIGS. 11A-F illustrate details of interaction of idebenone analogs, idebenone and SrcI-1 with Shc protein. […]

[1] = test system: insulin-dependent activation of Akt in FL83B mouse liver cells; experiment: Western blot of insulin-dependent phospho-Akt activation in FL83B cells; assay type: cell-based; conditions: for Insulin-dependent P-Akt signaling: Western blot
Source text: (§2) Western blot protocol of phospho-Akt (columns 2-4) and phospho-Erk (columns5-7). As explained above and in Example 4, Western blots of phospho-Akt and phospho-Erk are a more accurate and precise and quantitative measure of Akt phosphorylation than ICWB measurements. Insulin-dependent phospho-Akt is a direct measurement of insulin sensitivity, and we expect that Shc inhibitors will stimulate phospho-Akt more than phospho-Erk. All of the drugs listed in FIG. 5A stimulated insulin-dependent phospho-Akt at some concentration. Method. Mouse liver cells FL83B were plated at density of 400.000 cells per well of 6 well pate and cultivated for 48 hours, media was changed to DMEM, 25 mM glucose serum free and 16 hours later the cells were treated with drug at the indicated concentration for one hour. Control wells were treated with the vehicle (DMSO), in certain control wells the metabolic (Akt) insulin signaling was blocked with wortmannin. The cells were induced with indicated concentration of insulin for 10 minutes, total protein was extracted and the Western Blots were performed with indicated antibody as described above. […]
Sensogramms were obtained, and response [nm] for each concentration was plotted against log concentration of idebenone. […] Cells were stimulated with 0.2 nM insulin for 10 minutes, and Western analyzed for induction of Akt and ERK. […] Sigmoidal dose-response (variable slope) fitting analysis was performed, EC50, hill slope, and top response were identified, as described above, and are indicated on the graph. p-value was calculated by testing R^2 for significance for N=65. […] For ITT, the food was deprived at 7 am (the beginning of light phase), basal glucose was measured at 11 am, and insulin was administrated at 0.8 U/kg dose; blood glucose was recorded and expressed as % of baseline, and plotted against time. […]

phospho-Shc = experiment: Western blot of phospho-Shc; assay type: cell-based
Protocol: Assays to identify compounds useful for preventing, reducing, delaying or inhibiting symptoms of impaired insulin sensitivity, glucose intolerance or obesity can be performed in vitro. Candidate agents can be contacted with a population of test cells in the presence of insulin (e.g., 1 nM, 5 nM, 10 nM, 100 nM or more). An agent that prevents, reduces, delays or inhibits one or more symptoms of impaired insulin sensitivity, glucose intolerance or obesity increases the ratio of levels of phospho-Akt-1 over phospho-Erk relative to a control ratio. The increase in ratio of levels of phospho-Akt-1 over phospho-Erk can be determined in comparison to a control population of cells that have not been contacted with insulin or have been contacted with a low concentration of insulin (e.g., less than 0.1 nM) or a population of cells contacted with insulin but not with the compound under test. Ratio of levels of phospho-Akt-1 over phospho-Erk can be determined using a Western blot among other methods. Inhibition of Shc activity can be quantitatively measured by assaying the reduction of stimulatory Shc phosphorylation, using a phospho-Shc specific antibody. Inhibition of Shc expression can be measured using a Western blot. […]

mice = experiment: Insulin tolerance test (ITT) and basal blood glucose in mice; assay type: in vivo, mouse; conditions: for Insulin sensitivity in vivo (ITT): PO 20 and 50 mg/kg in peanut butter, five days
Protocol: Insulin Tolerance Test (ITT) and Glucose Tolerance Test (GTT) Protocol for FIG. 2C: Groups of age/sex matched mice of Control and ShcKO genotypes were food deprived for four hours and challenged with I.P. injection of insulin, and glucose concentration was determined in blood exactly at indicated time-points. Decrease and recovery of blood glucose was calculated as a % of basal level (the time-point before insulin injection). Basal levels of glucose were measured in triplicate for each mouse. For the GTT, the same groups of mice were fasted during fourteen hours and challenged with glucose injection I.P., analogously the blood glucose concentrations were measured.
In-vivo drugs testing to improve the insulin sensitivity of periphery for FIG. 6D, E: Groups of mice, ten for the experimental drug treatment and 14 for the placebo treatment were subject for I.P. administration of a drug or placebo solutions daily during four days. Acarbose, a known drug which decreases blood glucose concentration was used as a control. The insulin tolerance test, ITT was performed on the mice as described previously, in Example 2.
as §1

[2] = test system: corticosterone-treated mice; experiment: Corticosterone-treated mice: blood glucose and ITT; assay type: in vivo, mouse
Protocol: Mice were kept pathogen-free throughout the study. All experimental procedures were approved by the Institutional Animal Care and Use Committee (IACUC) and were performed in compliance with local, state, and federal regulations. Diet was LM-485 (Teklad 7012) with nutrient composition: protein=19.9%, carbohydrates=53.7%, fat=5.7%. The source of lipid was soybean oil, protein-soybean meal, energy source-ground oats. Group of 36 13-month old male and female mice were tested with ITT before the study began and were started on Corticosterone in drinking water at 100 mg/L. Body weight and blood glucose were monitored. FIG. 12A illustrates experimental flow. Mice were started on corticosterone at day 1 and continued on it through the study. At day 13 the group was randomly split 1:1 and half were given idebenone as a mixture with peanut butter daily, another half was given placebo daily for another 5 days. All mice continued receiving corticosterone in drinking water for these 5 days, and then ITT were performed. For insulin tolerance tests mice were fasted for six hours and given intra-peritoneal injection of insulin (0.2 U/kg); then blood glucose was measured in the indicated time course (FIG. 12D). FIG. 12B bars are body weights in grams. […] (FIG. 12D) ITT of Control, CS+placebo, and CS+idebenone groups. […] Error bars are standard deviations. *=p<0.05. […]

FL83B cells = experiment: High-throughput in-cell western blot (ICWB) screen for insulin sensitizers, P-Akt over P-ERK; assay type: cell-based, mouse; conditions: for Score rank in screening assay: 1689 molecules screened
Protocol: Drugs were screened by in-cell western blot (ICWB) for their ability to stimulate phospho-Akt activation in the presence of trace or 10 nM insulin (FIG. 4A). Cells in wells were treated with drugs, and the activity (phosphorylation) of Akt was determined by a phospho-Akt specific antibody. In FIG. 4A, low insulin was given and drugs a, b, c, stimulated Akt activation. In FIG. 4B, 10 nM insulin was given and a, b, and c stimulated signaling over background, and d and […] inhibited. […] Drugs were primarily screened for their ability to promote insulin-dependent stimulation of (phospho)Akt, then secondarily screened for lack of activity to stimulate (phospho) Erk, or a high Akt/Erk ratio. Such drugs are expected to cause insulin sensitivity, resistance to obesity, and longevity. Some drugs having these desired characteristics are Shc inhibitors.
Primary ICWB was performed as follows: FL83B cells were seeded on 384 well plates, 10,000 cells per well in F-12 media supplemented with 10% FBS and 25 mM glucose; 48 hours later the media was replaced with F-12, 25 mM glucose without FBS for sixteen hours; cells were supplemented with assigned drug at desired concentration for 1 hour in duplicate and then, the cells were stimulated with desired concentration of insulin for ten minutes for Akt activation and fifteen minutes for ERK activation measurements. After that time the media was removed and replaced with fixing solution of 5% Formaldehyde in PBS, pH=7.4, 30 minutes later, the fixing solution was replaced with the permeabilization buffer, 0.1% triton X100 in PBS for 40 minutes. […] After the incubation with the secondary antibodies for one hour at room temperature, the wells were washed again two times with the 0.1% tween-20 in PBS and scanned on the Li-Cor Odyssey infrared scanner; images were analyzed with the Li-Cor Odyssey software. […] Phospho-Akt, Phospho-ERK signals than were normalized by tubulin signals in each well and the densitometric results were analyzed to identify drugs which improved metabolic insulin sensitivity without inducing the mitogenic ERK activation. […]

[3] = test system: Erk activation in FL83B mouse liver cells; experiment: Western blot of phospho-Erk activation in FL83B cells; assay type: cell-based
Source text: as §2

Structure (SMILES) | EC50 (Shc-PTB domain; 48 point titration) [nM] | EC50 ([1]; Mus musculus, drug 1 hour, 0.2 nM insulin for 10 minutes, 65 points, read-out: EC50 of sensitizing cells to insulin (insulin dependent activation of Akt)) [nM] | Insulin-dependent P-Akt signaling [1] | phospho-Shc activation (phospho-Shc) | Insulin sensitivity in vivo (ITT) (mice) | Insulin sensitivity in vivo (ITT) (mice; listed as Idebenone) | Blood glucose level ([2]; 18th day, corticosterone 100 mg/L in drinking water, idebenone daily 5 days, versus placebo) | Sensitivity to insulin in ITT ([2]; 40, 60, and 90 minutes after insulin 0.2 U/kg, versus corticosterone plus placebo) | P-Akt/P-Erk ratio in primary screen (FL83B cells; ICWB primary screen) | EC50 (Shc-PTB domain; 24 point titration) [nM] | Binding to Shc-PTB (Shc-PTB domain; Octet RED 384 sensograms) | Erk activation [3] | P-Akt/P-Erk ratio [3] | Basal blood glucose (mice; 2.5 mg/kg I.P. for 4 days) | Insulin sensitivity in-vivo (ITT) (mice; 2.5 mg/kg I.P. for 4 days) | Score rank in screening assay (FL83B cells)
COC1=C(OC)C(=O)C(CCCCCCCCCCO)=C(C)C1=O [idebenone] | 1.2 | 3.3 | increased insulin-dependent phospho-Akt activation in a dose-dependent manner | decreased phospho-Shc in a dose-dependent manner | increased insulin sensitivity in vivo | significantly improving insulin sensitivity in-vivo | significant decrease comparing to placebo group in blood glucose level | significantly more sensitive to insulin than corticosterone plus placebo | increased P-Akt/P-Erk ratio |  |  |  |  |  |  | 
COc1cc2ncnc(Nc3ccc(Oc4ccccc4)cc3)c2cc1OC [SrcI-1] |  |  | stimulates insulin-dependent P-Akt signaling | inhibited phospho-Shc activation in dose-dependent manner |  |  |  |  |  | 3000 | binding to Shc-PTB in dose-dependent fashion | decreased Erk activation | increasing the P-Akt/P-Erk ratio | significantly decreased basal blood glucose | increased insulin sensitivity in-vivo | scored in the top 35 out of 1689 molecules
CN(C)C(=N)N=C(N)N [metformin] |  |  |  |  |  |  |  |  |  |  |  |  |  |  |  | scored in the top 35 out of 1689 molecules
